The text below walks through data of patent publication US20230027075A1, “SULFONAMIDE COMPOUNDS TARGETING CD73 AND ADENOSINE RECEPTORS” (Aurigene Discovery Technologies Limited, priority 2019, published 2023).

One test addresses T1, A2aR (Homo sapiens, UniProt P29274).
T1 construct: expressed in transfected cells
As to the kind of experiment: A2aR biochemical assay (TR-FRET binding, Tag-lite A2aR labelled cells, fluorescent antagonist). Conditions: 10 nM fluorescent A2aR antagonist; for inhibition at 20 µM: 20 μM compound, vs DMSO control, read-out: % inhibition at 20 μM (Percent inhibition data in A2aR); for IC50: four-parameter curve fit, read-out: Potency (IC50 values) of selected compounds in A2aR, group. The method, then:
The compounds of present invention were assayed for A2aR enzyme binding activity in a TR-FRET based method. Typically, 10 μL of A2aR labelled cells in assay buffer (Tag-lite, 1×) is added to a 384-well plate containing 5 μL of a compound of present invention in final 1% DMSO, serially diluted in 1:5 in a 5-6 point titration. The aforesaid compound and cells are incubated for 30 minutes at room temperature. Next, 5 μL of A2aR antagonist (fluorescent ligand) in assay buffer is added to the plate. The final concentration of A2aR antagonist is 10 nM. Following 30 minutes reaction at room temperature, the plate was read on a plate reader (Ex: 340 nm Em: 615 nm and 665 nm) to measure the binding of test compound to A2aR cells. The results are interpreted as percentage inhibition as presented in Table-2A of binding by the test compound with respect to the DMSO control.

Test [1] concerns the target T2, human-CD73 (Trp27-Lys547, His-tag) (Homo sapiens, UniProt P21589).
T2 construct: human-CD73 (Trp27-Lys547, His-tag); His-tag
T2 sequence (P21589 27-547): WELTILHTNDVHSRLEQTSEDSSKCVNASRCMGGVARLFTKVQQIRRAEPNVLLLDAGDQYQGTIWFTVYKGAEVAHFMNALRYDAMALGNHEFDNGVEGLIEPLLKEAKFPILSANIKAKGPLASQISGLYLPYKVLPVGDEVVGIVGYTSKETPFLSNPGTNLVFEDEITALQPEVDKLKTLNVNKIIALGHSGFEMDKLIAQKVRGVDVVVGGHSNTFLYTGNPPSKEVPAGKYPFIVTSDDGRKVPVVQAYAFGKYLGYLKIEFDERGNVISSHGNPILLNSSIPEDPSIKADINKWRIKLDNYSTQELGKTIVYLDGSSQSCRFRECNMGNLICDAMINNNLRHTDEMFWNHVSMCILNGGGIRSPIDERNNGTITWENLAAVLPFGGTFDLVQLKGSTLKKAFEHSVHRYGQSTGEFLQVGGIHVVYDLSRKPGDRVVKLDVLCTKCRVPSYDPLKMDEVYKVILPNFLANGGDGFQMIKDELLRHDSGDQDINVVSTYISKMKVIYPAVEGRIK
As to the kind of experiment: CD73 biochemical assay (colorimetric, Malachite Green phosphate detection). The settings on record: 2 nM CD73, 50 μM AMP; for inhibition at 20 µM: 20 μM compound, read-out: % inhibition at 20 μM (Percent inhibition data in CD73); for IC50: four-parameter curve fit, read-out: Potency (IC50 values) of selected compounds in CD73, group. The protocol:
A colorimetric-based method was used for assaying compounds of the invention for CD73 enzyme inhibitory activity. Human CD73 catalyzes the conversion of AMP to adenosine with the release of orthophosphate. A Malachite Green Phosphate Detection kit is used to measure the formation of orthophosphate product. […] A compound of the present invention and enzyme are incubated for 30 minutes at room temperature. Next, 20 μL of AMP in assay buffer is added to the plate. The final concentration of CD73 and AMP are 2 nM and 50 μM respectively. Following 30 minutes reaction at room temperature, 20 μL of Malachite reagent is added to all the reaction wells. The formation of green complex formed between Malachite Green, molybdate and free orthophosphate is measured on a plate reader (620 nm).

Some results are limits rather than exact numbers.

T1 sequence (P29274 whole entry): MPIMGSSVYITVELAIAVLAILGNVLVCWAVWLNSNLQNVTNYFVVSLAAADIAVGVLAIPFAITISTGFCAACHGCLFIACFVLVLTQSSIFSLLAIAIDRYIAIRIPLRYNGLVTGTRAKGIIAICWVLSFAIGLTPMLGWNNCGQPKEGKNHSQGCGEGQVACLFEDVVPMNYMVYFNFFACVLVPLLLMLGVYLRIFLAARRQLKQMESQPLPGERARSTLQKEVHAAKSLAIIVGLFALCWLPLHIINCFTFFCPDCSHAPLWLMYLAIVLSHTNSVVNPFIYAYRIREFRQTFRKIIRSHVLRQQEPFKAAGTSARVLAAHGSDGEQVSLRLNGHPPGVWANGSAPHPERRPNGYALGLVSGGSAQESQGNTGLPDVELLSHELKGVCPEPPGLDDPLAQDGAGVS

Take `NC(=O)c1cc(S(=O)(=O)Nc2ccc(CCCOc3nc(N)n4nc(-c5ccco5)nc4n3)cc2)cc(Cl)c1O` [Example A12, 5-(N-(4-(3-((7-amino-2-(furan-2-yl)-[1,2,4]triazolo[1,5-a][1,3,5]triazin-5-yl)oxy)propyl)phenyl)sulfamoyl)-3-chloro-2-hydroxybenzamide]: on A2aR, the inhibition at 20 µM amounted to 72% and the IC50 was greater than 50 nM. In addition, in test [1], the inhibition at 20 µM was 99% and the IC50 is less than 100 nM.
As for `NC(=O)c1cc(S(=O)(=O)Nc2ccc(CCNc3cc(N)n4nc(-c5ccco5)nc4n3)nc2)cc(Cl)c1O` [Example E2, 5-(N-(6-(2-((7-amino-2-(furan-2-yl)-[1,2,4]triazolo[1,5-a]pyrimidin-5-yl)amino)ethyl)pyridin-3-yl)sulfamoyl)-3-chloro-2-hydroxybenzamide], the inhibition at 20 µM on A2aR stood at 85%. In addition, in test [1], the inhibition at 20 µM was found to be 94% and the IC50 lay within 110 to 1000 nM.
As for `NC(=O)c1cc(S(=O)(=O)Nc2ccc(CNc3nc(N)n4nc(-c5ccco5)nc4n3)cc2)cc(Cl)c1O` [Example A2, 5-(N-(4-(((7-amino-2-(furan-2-yl)-[1,2,4]triazolo[1,5-a][1,3,5]triazin-5-yl)amino)methyl)phenyl)sulfamoyl)-3-chloro-2-hydroxybenzamide], on A2aR, the inhibition at 20 µM amounted to 80% and the IC50 was greater than 50 nM. In test [1], the inhibition at 20 µM came to 97% and the IC50 fell in the range of 110 to 1000 nM.
